Active and inactive are the calls of the source. Bounds are passed on as bounds.

Test [1] addresses Lysosomal acid glucosylceramidase (Homo sapiens, UniProt P04062). Description: Dose response cell-based high throughput screening assay to identify enhancers of beta-glucosidase activity. [Related pubchem assays: 784 ]. The format is functional.
In test [2] the target is Acyl-homoserine lactone acylase PvdQ (Pseudomonas aeruginosa (strain LESB58), UniProt Q9I194). Description: P. aeruginosa PvdQ acylase inhibitors, dose response, biochemical, fluorescence, plate reader and imaging, cherry-picks (AID 493231).
Test [3] in a line: Luminescence Cell-Based Dose Retest to Confirm Inhibitors of Cancer Stem Cells. [Related pubchem assays (depositor defined):AID2717, AID2721]. The note with it: Homo sapiens. It is filed as functional.
The nature of test [4]: growth suppression of PTEN-null colon cells, dose response, cell-based, HCT116 PTEN knockout (AID 1047).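 Note: HCT116 colon tumor cells with PTEN knocked out; cells exposed to compound for 60 hours before readout; potency for loss of cell viability measured by luminescence.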 The format is functional.
Test [5] can be described thus: cells.
A short description of test [6]: growth suppression of beta-catenin-knockout colon cells, dose response, cell-based, HCT116, human colon tumor (AID 1045).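 Note: HCT116 colon tumor cells with beta catenin knocked out; cells exposed to compound for 60 hours.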 It is filed as functional.
Test [7] in a line: HEp-2 cell cytotoxicity, dose response, cytotoxicity control for RSV inhibitor project, HTS (AID 2410). The format is functional. As to conditions: human respiratory syncytial virus.
A short description of test [8]: Counterscreen for IDE inhibitors: Luminescence-based cell-based high throughput dose response assay to identify compounds that are cytotoxic to HEK cells. [Related pubchem assays: 434962 (Primary screen (IDE inhibitors in singlicate)), 449730 (Counterscreen (Cytotoxicity in triplicate)), 435028 (Confirmation (IDE inhibitors in triplicate)) …. The note with it: HEK293. It is filed as functional. On the technique in general: Counterscreens check selectivity or assay interference.

Test [9] concerns the target T1, Insulin-degrading enzyme (Homo sapiens, UniProt P14735).
T1 sequence (P14735 whole entry): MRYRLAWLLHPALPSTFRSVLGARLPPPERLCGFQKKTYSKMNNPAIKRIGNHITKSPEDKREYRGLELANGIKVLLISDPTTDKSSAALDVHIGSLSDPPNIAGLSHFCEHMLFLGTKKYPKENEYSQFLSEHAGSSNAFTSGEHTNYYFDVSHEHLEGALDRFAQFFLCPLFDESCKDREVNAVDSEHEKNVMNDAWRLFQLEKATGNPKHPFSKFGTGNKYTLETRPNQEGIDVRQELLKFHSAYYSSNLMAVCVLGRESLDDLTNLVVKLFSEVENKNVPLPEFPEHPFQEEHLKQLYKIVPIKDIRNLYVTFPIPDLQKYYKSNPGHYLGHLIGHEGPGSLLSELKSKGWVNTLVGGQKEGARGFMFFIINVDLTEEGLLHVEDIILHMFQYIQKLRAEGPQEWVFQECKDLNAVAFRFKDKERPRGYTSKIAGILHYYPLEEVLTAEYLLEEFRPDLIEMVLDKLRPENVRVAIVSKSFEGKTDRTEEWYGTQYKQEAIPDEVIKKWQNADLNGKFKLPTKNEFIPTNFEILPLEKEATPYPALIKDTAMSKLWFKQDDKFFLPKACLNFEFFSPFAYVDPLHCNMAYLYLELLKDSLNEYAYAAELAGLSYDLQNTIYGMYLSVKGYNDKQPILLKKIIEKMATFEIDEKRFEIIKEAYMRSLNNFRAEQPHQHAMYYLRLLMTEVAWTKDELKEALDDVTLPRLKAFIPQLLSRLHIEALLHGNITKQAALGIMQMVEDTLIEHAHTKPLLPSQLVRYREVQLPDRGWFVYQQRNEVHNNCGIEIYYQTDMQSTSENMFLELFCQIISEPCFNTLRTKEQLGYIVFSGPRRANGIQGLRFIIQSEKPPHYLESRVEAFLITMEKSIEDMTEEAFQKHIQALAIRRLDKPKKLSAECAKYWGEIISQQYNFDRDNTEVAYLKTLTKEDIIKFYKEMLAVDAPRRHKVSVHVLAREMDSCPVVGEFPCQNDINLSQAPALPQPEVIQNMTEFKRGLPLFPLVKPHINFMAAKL
The test is described as follows: Dose Response: Fluorescence polarization-based cell-based high throughput dose response assay for inhibitors of insulin-degrading enzyme (IDE). [Related pubchem assays: 434962 (Primary screen (IDE inhibitors in singlicate)), 449730 (Counterscreen (Cytotoxicity in triplicate)), 435028 (Confirmation (IDE inhibitors in triplicate)), 434984 (Summary …. The format is functional.

Test [10] deals with T2, Bcl-2-like protein 10 (Homo sapiens, UniProt Q9HD36).
T2 sequence (Q9HD36 whole entry): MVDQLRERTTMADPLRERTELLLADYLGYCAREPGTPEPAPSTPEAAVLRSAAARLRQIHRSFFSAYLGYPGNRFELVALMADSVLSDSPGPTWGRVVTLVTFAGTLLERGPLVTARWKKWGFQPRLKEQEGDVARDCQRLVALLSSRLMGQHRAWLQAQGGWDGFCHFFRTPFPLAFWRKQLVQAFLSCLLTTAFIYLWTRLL
The test is described as follows: Biochemical TR3 FP assay of Bcl-B inhibitor potency, EC50 (AID 1243). The format is functional.

For test [11], the system named is Vero. Description: cytotoxicity of synthesized analogs in Vero cells, SAR follow-up, cytotoxicity control for West Nile virus antiviral project, cell-based, set II (AID 2402). It is filed as functional. The note with it: Chlorocebus sabaeus.
The nature of test [12]: A Cell Based Assay for the Identification of Probe candidate Compounds with Anti- Venezuelan Equine Encephalitis virus. [Related pubchem assays: 2409, 2419, 1621, 2238, 2405, 2024, 2065, 2402, 2414, 1635, 1650, 2244 ]. It is filed as functional.
In test [13] the test system is Vero. Description: Vero E6 cell cytotoxicity, SAR follow-up, cytotoxicity control for West Nile virus antiviral project, synthesized analogs (AID 2244). As to conditions: Chlorocebus sabaeus. The format is functional.

Acyl-homoserine lactone acylase PvdQ, sequence (Q9I194 24-193 limits assumed): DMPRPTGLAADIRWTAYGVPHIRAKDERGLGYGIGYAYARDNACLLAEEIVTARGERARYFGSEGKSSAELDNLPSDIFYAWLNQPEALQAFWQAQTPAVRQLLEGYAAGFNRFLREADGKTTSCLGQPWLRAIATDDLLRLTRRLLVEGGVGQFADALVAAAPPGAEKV
Acyl-homoserine lactone acylase PvdQ, sequence (Q9I194 217-762 limits assumed): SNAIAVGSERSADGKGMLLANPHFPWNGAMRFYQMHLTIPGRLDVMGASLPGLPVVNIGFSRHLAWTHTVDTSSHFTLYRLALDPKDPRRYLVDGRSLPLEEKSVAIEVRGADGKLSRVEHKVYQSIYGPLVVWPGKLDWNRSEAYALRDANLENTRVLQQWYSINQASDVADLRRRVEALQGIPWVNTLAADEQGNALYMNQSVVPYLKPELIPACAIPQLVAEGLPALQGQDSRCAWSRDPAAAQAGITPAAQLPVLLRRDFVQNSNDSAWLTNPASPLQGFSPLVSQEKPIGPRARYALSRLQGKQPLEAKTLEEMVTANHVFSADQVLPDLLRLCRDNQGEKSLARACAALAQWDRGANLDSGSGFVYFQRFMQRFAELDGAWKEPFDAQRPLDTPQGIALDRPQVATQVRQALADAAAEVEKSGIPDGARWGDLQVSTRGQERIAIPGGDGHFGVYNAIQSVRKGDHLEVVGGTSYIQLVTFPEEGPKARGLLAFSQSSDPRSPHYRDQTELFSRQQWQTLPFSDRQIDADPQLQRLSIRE
Lysosomal acid glucosylceramidase, sequence (P04062 whole entry): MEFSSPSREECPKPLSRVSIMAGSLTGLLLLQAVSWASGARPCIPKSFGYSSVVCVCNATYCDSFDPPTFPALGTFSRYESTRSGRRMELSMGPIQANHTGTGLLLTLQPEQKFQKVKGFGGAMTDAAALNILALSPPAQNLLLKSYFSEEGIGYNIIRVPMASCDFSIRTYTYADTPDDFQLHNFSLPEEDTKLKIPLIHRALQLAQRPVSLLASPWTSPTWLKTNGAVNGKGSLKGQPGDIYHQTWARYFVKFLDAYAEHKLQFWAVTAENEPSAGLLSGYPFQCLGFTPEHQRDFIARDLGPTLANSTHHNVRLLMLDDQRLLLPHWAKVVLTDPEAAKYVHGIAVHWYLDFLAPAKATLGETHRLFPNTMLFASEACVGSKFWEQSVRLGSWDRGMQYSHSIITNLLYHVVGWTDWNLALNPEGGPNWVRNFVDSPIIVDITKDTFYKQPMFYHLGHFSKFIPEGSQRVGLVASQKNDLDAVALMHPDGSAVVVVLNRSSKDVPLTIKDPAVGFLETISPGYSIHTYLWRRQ

For orientation: EC50 means the concentration at which the effect is half-maximal. `O=C1Nc2ccccc2C(O)(C(=O)NC2CC2)N1c1ccc(Cl)c(Cl)c1` (centres undefined): the EC50 in [1] was > 50 µM (not active).

As a reminder, the AC50 is the midpoint of the concentration-response curve, whichever way the signal moves. Turning to `CCCCCC1CC(COc2ccccc2)OC1=O` (centres undefined), the AC50 in test [2] is 6.27 µM (active).

The IC50 is the point on the concentration scale where inhibition reaches its midpoint. Broadly, the CC50 is the concentration giving 50% cytotoxicity. As to `COc1ccc2c(c1)-c1nc(NC(=O)c3cccs3)sc1CC2`, in [3], the AC50 is 6.23 µM (active). Moreover, the EC50 in test [4] was 22 µM (active); in [6] it was 21.4 µM (active). In addition, in test [5], the IC50 was 26.8 µM (active). In test [7], the CC50 was 7.91 µM (active).

Take `Cc1cc(NC(=O)c2cc(Cl)ccc2Cl)no1`: the AC50 in [2] was > 100 µM (inactive).

For `Cc1cccc(N2CCN(C(=O)c3cccc(N4C(=O)C5CC=CC(C)C5C4=O)c3)CC2)c1C` (centres undefined), the IC50 is 23.8 µM (not active) in test [8] and 4 µM (active) in test [9].

Consider `C(=N\c1ccc(/N=C/c2ccccn2)cc1)/c1ccccn1`, for which, in [10], the EC50 is 4.39 µM (active).

With `CCCCN(C(=O)c1ccccc1Cl)c1nc(-c2ccc(OC)cc2)cs1`, the half-maximal cytotoxic concentration (CC50) was > 100 µM (active) in [11] and > 40 µM (active) in test [13]. Further, the 50% inhibitory concentration (IC50) in test [12] was > 66.6 µM (active).
